In publication PMC8802628, “Selective activation of PFKL suppresses the phagocytic oxidative burst” (Cell, 2021):
Entries after “also recorded” stand apart in the source; their conditions may differ. Read-outs that look alike come from different tables or passages of the source. One block for each compound: values may come before it.

Columns and labels:
PMNs = assay: ROS detection assay (ROS-Glo) in neutrophils; assay type: cell-based, human; settings: for PMA-induced ROS production: 50 nM PMA
Protocol: ROS were measured using the ROS-Glo bioluminescent assay (Promega) for the direct detection of H2O2. Briefly, neutrophils (2 × 10^4) were plated in white 96-well plates (Greiner) in high glucose DMEM medium. Cells were cultured with DMSO vehicle, 0.5 μM NA-11, 5 μM LDC7559, 100 μM apocynin, or 200 μM thionicotinamide for 30 min, and then stimulated with 50 nM PMA or treated with 10 μg/mL zymosan beads, pre-opsonized in 20% serum for 30 min. Luminescence, after the addition of H2O2 substrate solution of 20 min, and then ROS-Glo detection solution for 20 min, was recorded on a plate reader (Envision).

human PFKP = target: T1, human PFKP (Homo sapiens, UniProt Q01813); assay: Recombinant PFKP activity assay; assay type: biochemical; settings: at concentrations up to 100 μM
T1 construct: made in house; host or cells: Sf9 insect cells (baculovirus)
Description: (§1) Recombinant N-terminal His-tagged human PFKL (NP_002617), PFKM (NP_000280), and PFKP (NM_002627.4) were generated as described ([Webb et al., 2015], [2017]). Point mutants of PFK1 were generated using the QuikChange Lightning kit (Aligent).
His-tagged PFK1 was expressed and purified as described with slight modifications ([Webb et al., 2015], [2017]). Briefly, baculovirus was generated using the Bac-to-Bac Expression system (Invitrogen). PFK1 was expressed in 2-5 × 10^6 sf9 cells at a multiplicity of infection of two for 48 h. […] Protein was quantified using a Bradford Protein Assay kit (ThermoFisher Scientific), and aliquotes frozen in liquid nitrogen for storage at −80°C.
PFK1 activity was determined using the rate of FBP production via an auxiliary enzyme assay adapted to a 96-well format ([Brüser et al., 2012]; [Webb et al., 2015]). […] For assays containing FBP, the rate of ADP production was determined using the auxiliary enzymes pyruvate kinase (PK) and lactate dehydrogenase (LDH) (MilliporeSigma) in a buffer containing 250 μM phosphoenolpyruvic acid, […] NADH, 50 mM HEPES pH 7.5, 100 mM KCl, 1 mM DTT, and effector concentrations as described in the text. […] Absorbance at 340 nm was measured using a Varioskan LUX Multimode microplate reader (ThermoFisher). […]

PFKL = target: T2, PFKL (Homo sapiens, UniProt P17858); assay: Recombinant PFKL activity assay (relief of ATP inhibition); assay type: biochemical
T2 construct: made in house; host or cells: Sf9 insect cells (baculovirus, Bac-to-Bac)
T2 sequence (P17858 1-780): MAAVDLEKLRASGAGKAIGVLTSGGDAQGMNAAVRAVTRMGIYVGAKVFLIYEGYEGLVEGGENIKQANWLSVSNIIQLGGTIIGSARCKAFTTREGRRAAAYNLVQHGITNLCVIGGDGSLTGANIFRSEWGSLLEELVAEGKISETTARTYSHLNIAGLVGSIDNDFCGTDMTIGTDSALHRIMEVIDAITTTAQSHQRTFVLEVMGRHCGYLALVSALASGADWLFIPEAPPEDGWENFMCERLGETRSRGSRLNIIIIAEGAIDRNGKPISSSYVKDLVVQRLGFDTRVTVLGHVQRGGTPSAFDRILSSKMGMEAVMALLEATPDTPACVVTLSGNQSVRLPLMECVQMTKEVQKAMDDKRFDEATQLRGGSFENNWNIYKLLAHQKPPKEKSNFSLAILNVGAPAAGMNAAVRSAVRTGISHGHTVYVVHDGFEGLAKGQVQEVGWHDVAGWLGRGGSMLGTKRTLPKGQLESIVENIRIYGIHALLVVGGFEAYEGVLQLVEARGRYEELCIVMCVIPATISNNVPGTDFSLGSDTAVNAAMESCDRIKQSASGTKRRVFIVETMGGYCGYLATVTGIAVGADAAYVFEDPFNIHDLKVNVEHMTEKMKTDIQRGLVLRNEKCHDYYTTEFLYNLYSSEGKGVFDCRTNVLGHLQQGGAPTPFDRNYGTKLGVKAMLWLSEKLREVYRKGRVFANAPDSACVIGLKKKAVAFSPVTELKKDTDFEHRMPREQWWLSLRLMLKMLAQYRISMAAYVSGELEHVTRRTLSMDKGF
Description: as §1
His-tagged PFK1 was expressed and purified as described with slight modifications ([Webb et al., 2015], [2017]). Briefly, baculovirus was generated using the Bac-to-Bac Expression system (Invitrogen). PFK1 was expressed in 2-5 × 10^6 sf9 cells at a multiplicity of infection of two for 48 h. Cells were lysed in 20 mM HEPES, pH 7.5, 80 mM potassium phosphate, 1 mM 2-mercapentoethanol, 10% glycerol, 10 mM imidazole, and EDTA-free Protease Inhibitor Cocktail (Abcam) with a Dounce homogenizer. The soluble lysate was incubated with HisPur cobalt resin (ThermoFisher Scientific). The resin was washed with 5 bead volumes lysis buffer, 10 bead volumes lysis buffer containing 2 M NaCl, and 5 further bead volumes lysis buffer. PFK1 was eluted in lysis buffer containing 100 mM imidazole. Fractions containing protein were pooled, passed over a desalting column equilibrated in freezing buffer [20 mM HEPES pH 7.5, 1 mM DTT, 500 μM ammonium sulfate, 5% glycerol, 1 mM ATP, and 100 μM EDTA] and concentrated using an Amicon Ultracel-30K Centrifugal Filter Unit (MilliporeSigma). Protein was quantified using a Bradford Protein Assay kit (ThermoFisher Scientific), and aliquotes frozen in liquid nitrogen for storage at −80°C.
PFK1 activity was determined using the rate of FBP production via an auxiliary enzyme assay adapted to a 96-well format ([Brüser et al., 2012]; [Webb et al., 2015]). The auxiliary enzymes aldolase, triosephosphate isomerase, and glycerol phosphate dehydrogenase were purchased from MilliporeSigma as ammonium sulfate slurries and desalted using an Amicon Ultracel-10K Centrifugal Filter Unit. For assays containing FBP, the rate of ADP production was determined using the auxiliary enzymes pyruvate kinase (PK) and lactate dehydrogenase (LDH) (MilliporeSigma) in a buffer containing 250 μM phosphoenolpyruvic acid, […] NADH, 50 mM HEPES pH 7.5, 100 mM KCl, 1 mM DTT, and effector concentrations as described in the text. The temperature was equilibrated to 25°C for 5 min before initiating the reaction 10 mM MgCl2. Absorbance at 340 nm was measured using a Varioskan LUX Multimode microplate reader (ThermoFisher). Kinetic parameters were generated by nonlinear regression analysis using Prism (GraphPad Software) and are the mean of a minimum of three measurements from two independent preparations of protein. One unit of activity was defined as the amount of enzyme that catalyzed the formation of 1 μmol of fructose 1,6-bisphosphate per min at 25°C. Assays for PFKM were performed at pH 7.0 due to the pH-dependence of ATP inhibition ([Trivedi and Danforth, 1966]).

[1] = pH 7.5, 3.1 mM ATP, 4 mM F6P, mean ± SEM, read-out: EC50, activation of PFKL wild type
[2] = PFKL wild type, pH 7.5, 225 μM ATP

T1 sequence (Q01813 whole entry): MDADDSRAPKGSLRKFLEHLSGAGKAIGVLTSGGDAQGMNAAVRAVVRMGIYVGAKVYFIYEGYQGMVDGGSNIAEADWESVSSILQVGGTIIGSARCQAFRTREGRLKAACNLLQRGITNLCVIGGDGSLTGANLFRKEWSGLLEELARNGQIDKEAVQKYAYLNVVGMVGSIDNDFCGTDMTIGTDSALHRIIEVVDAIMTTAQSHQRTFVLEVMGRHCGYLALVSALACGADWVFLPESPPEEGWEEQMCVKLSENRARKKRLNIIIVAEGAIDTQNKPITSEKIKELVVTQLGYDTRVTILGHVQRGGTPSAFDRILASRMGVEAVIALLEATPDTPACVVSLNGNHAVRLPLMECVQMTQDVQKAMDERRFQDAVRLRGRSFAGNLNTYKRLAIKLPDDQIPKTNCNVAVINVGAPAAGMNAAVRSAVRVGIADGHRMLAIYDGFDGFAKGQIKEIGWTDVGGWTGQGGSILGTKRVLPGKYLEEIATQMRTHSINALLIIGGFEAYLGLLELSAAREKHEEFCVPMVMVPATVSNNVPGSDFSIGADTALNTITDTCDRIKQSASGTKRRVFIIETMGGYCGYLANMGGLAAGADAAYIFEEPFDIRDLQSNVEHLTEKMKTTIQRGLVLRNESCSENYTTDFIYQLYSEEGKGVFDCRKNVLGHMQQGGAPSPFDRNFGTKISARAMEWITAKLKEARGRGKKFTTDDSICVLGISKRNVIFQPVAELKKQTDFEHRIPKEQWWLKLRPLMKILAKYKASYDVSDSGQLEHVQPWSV

activation of PFKP (human PFKP): failed to activate
EC50 (PFKL; [1]): 66 ± 18.9 nM
SMILES: COc1ccccc1-c1cc2n(n1)Cc1ccc(NC(C)=O)cc1OC2 [LDC7559, reference compound]
PMA-induced ROS production (PMNs): inhibited PMA-induced ROS production

hF6P (Hill coefficient) (PFKL; [2]): 3.16 ± 0.89
SMILES: O=C(CO)[C@@H](O)[C@H](O)[C@H](O)COP(=O)(O)O [F6P, fructose 6-phosphate]
Vmax,F6P (PFKL; [2]): 13.28 ± 1.69 micromoles FBP per minute per milligram PFK1

EC50 (PFKL; [1]): 19.2 ± 6.79 nM
SMILES: CC(=O)Nc1ccc2c(c1)OCc1cc(-c3ccccc3)nn1C2 [NA-5]

SMILES: CC(=O)Nc1ccc2c(c1)OCc1cc(-c3ccccc3C#CCCCO)nn1C2 [NA-11]
PMA-induced ROS production (PMNs): inhibited PMA-induced ROS production; also recorded: markedly suppressed, but did not completely prevent, PMA-induced ROS
ROS production during phagocytosis of opsonized zymosan (PMNs; over 2 h): kept ROS production at basal levels
activation of PFKP (human PFKP): failed to activate
EC50 (PFKL; Control (ligand series), pH 7.5, 4.0 mM F6P, 3.1 mM ATP, read-out: EC50, NA-11): 12 ± 2.73 nM
Vmax (PFKL; NA-11 titration with 50 μM AMP, pH 7.5, 4.0 mM F6P, 3.1 mM ATP): 18.11 ± 1.23 μmoles FBP per min per mg PFK1
Vmax (PFKL; NA-11 titration with 200 μM FBP, pH 7.5, 4.0 mM F6P, 3.1 mM ATP): 21.31 ± 2.44 μmoles FBP per min per mg PFK1
Vmax (PFKL; NA-11 titration, Control, pH 7.5, 4.0 mM F6P, 3.1 mM ATP): 18.19 ± 1.29 μmoles FBP per min per mg PFK1
EC50 (PFKL; pH 7.0, 4.0 mM F6P, 3.1 mM ATP, mean ± s.e.m., read-out: EC50, NA-11): 74 ± 20.9 nM
EC50 (PFKL; pH 7.5 (pH series), 4.0 mM F6P, 3.1 mM ATP, mean ± s.e.m., read-out: EC50, NA-11): 21.8 ± 6.21 nM
EC50 (PFKL; [1]): 14 ± 2.91 nM
EC50 (PFKL; pH 8.0, 4.0 mM F6P, 3.1 mM ATP, mean ± s.e.m., read-out: EC50, NA-11): 4.11 ± 0.92 nM
EC50 (PFKL; with 50 μM AMP, pH 7.5, 4.0 mM F6P, 3.1 mM ATP, read-out: EC50, NA-11): 12.3 ± 3.38 nM
EC50 (PFKL; with 200 μM FBP, pH 7.5, 4.0 mM F6P, 3.1 mM ATP, read-out: EC50, NA-11): 12 ± 6.99 nM
